Columns and labels:
JAK3 = target: T1, JAK3 (Homo sapiens, UniProt P52333); assay: Kinobeads assay, JAK3; type: binding; details: mixed Molt4/Ramos cell lysate, dot blot detection
T1 construct: endogenous in cells; host or cells: Mixed Molt4/Ramos lysate (1:2)
T1 sequence (P52333 1-1124): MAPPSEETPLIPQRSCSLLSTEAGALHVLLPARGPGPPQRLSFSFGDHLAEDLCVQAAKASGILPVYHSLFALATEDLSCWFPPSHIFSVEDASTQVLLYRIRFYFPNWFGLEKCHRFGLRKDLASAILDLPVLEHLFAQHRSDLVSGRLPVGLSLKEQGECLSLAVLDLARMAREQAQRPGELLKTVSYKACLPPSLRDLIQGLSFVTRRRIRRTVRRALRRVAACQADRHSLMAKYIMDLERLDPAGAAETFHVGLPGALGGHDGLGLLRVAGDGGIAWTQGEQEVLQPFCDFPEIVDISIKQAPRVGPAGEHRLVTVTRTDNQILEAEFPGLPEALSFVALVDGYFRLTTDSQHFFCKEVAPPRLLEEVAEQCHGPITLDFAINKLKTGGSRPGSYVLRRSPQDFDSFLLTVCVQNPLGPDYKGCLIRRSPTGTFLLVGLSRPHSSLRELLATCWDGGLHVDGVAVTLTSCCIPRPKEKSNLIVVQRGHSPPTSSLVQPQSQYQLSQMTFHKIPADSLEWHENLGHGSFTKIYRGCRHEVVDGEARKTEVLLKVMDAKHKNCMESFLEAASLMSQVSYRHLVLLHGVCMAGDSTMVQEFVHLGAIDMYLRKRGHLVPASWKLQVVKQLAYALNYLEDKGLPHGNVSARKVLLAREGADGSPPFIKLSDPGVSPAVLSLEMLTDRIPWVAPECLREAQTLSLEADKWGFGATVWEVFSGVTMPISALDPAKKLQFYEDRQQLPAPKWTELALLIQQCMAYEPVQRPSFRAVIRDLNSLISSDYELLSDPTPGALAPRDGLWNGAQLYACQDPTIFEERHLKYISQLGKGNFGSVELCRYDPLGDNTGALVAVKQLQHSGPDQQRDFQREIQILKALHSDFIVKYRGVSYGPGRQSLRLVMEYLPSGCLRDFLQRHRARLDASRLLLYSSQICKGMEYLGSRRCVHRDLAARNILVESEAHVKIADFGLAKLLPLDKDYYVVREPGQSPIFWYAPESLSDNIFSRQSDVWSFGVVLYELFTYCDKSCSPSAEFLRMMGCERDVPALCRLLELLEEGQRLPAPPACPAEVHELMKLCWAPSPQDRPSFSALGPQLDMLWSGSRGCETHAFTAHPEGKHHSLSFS
Procedure, shortened: (§1)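 Lysate from Molt4 and Ramos cells combined 1:2 at 10 mg/mL total protein met test compound and an aminopyrido-pyrimidine affinity matrix for 3 h in the cold. Captured JAK2 and JAK3, after elution, were measured by specific-antibody dot blot on an infrared system; dose-response curves yielded IC50.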

JAK2 = target: T2, JAK2 (Homo sapiens, UniProt O60674); assay: Kinobeads assay, JAK2; type: binding; details: mixed Molt4/Ramos cell lysate, dot blot detection
T2 construct: endogenous in cells; host or cells: Mixed Molt4/Ramos lysate (1:2)
Procedure, shortened: as §1

T2 sequence (O60674 whole entry): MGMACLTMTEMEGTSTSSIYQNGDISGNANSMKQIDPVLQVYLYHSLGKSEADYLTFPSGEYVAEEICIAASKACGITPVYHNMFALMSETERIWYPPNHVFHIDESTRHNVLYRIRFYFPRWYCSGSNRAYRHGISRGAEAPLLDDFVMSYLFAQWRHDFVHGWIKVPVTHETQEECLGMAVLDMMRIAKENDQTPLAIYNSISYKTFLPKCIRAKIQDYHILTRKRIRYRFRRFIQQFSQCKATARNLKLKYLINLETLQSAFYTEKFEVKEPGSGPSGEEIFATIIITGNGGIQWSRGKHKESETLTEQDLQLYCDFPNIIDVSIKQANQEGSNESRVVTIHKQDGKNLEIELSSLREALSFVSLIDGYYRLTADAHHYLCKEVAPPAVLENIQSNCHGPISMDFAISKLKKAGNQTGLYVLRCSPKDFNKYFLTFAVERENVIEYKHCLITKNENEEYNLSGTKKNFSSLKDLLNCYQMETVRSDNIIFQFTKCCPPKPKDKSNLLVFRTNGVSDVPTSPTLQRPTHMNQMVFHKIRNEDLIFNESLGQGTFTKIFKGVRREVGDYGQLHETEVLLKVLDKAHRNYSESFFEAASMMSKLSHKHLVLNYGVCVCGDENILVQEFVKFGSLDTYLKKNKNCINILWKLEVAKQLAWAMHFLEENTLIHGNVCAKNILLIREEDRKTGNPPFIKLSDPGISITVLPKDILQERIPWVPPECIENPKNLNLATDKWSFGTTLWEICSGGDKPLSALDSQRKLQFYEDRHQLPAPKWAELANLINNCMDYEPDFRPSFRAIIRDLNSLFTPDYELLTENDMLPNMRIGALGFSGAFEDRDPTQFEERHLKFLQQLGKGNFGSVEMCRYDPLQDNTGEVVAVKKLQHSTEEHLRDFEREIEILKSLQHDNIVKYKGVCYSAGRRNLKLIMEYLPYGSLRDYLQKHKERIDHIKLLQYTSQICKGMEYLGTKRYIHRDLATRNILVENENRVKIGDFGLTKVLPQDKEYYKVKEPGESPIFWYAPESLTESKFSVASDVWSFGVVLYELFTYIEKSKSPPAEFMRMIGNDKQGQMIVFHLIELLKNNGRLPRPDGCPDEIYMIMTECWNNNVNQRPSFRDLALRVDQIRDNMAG

Compound | IC50 (JAK3) [nM] | IC50 (JAK2) [nM]
Cn1cc(Nc2ncc3cnn(Cc4ccccc4Oc4ccccc4)c3n2)cn1 [Example 224, N-(1-Methyl-1H-pyrazol-4-yl)-1-(2-phenoxybenzyl)-1H-pyrazolo[3,4-d]pyrimidin-6-amine] | 100 to 1000 | ≥ 10000
Cn1cc(Nc2ncc3cnn(Cc4cccc(OCCN5CCCC5=O)c4)c3n2)cn1 [Example 225, 1-(2-(3-((6-((1-Methyl-1H-pyrazol-4-yl)amino)-1H-pyrazolo[3,4-d]pyrimidin-1-yl)methyl)phenoxy)ethyl)pyrrolidin-2-one] | < 100 | ≥ 10000
Cn1cc(Nc2ncc3cnn(Cc4cccc5c4OCO5)c3n2)cn1 [Example 228, 1-(Benzo[d][1,3]dioxol-4-ylmethyl)-N-(1-methyl-1H-pyrazol-4-yl)-1H-pyrazolo[3,4-d]pyrimidin-6-amine] | < 100 | 100 to 1000
Cn1cc(Nc2ncc3cnn(Cc4cccc5c4OCCO5)c3n2)cn1 [Example 229, 1-((2,3-Dihydrobenzo[b][1,4]dioxin-5-yl)methyl)-N-(1-methyl-1H-pyrazol-4-yl)-1H-pyrazolo[3,4-d]pyrimidin-6-amine] | < 100 | 100 to 1000
Cn1cc(Nc2ncc3cnn(Cc4cccc(-c5ccncc5)c4)c3n2)cn1 [Example 230, N-(1-Methyl-1H-pyrazol-4-yl)-1-(3-(pyridin-4-yl)benzyl)-1H-pyrazolo[3,4-d]pyrimidin-6-amine] | < 100 | ≥ 10000
Cn1nc(Nc2ncc3cnn(Cc4ccccc4F)c3n2)cc1C(=O)O [Example 236, 3-((1-(2-Fluorobenzyl)-1H-pyrazolo[3,4-d]pyrimidin-6-yl)amino)-1-methyl-1H-pyrazole-5-carboxylic acid] | 100 to 1000 | ≥ 10000
Cn1cnc(Nc2ncc3cnn(Cc4ccccc4F)c3n2)c1 [Example 237, 1-(2-Fluorobenzyl)-N-(1-methyl-1H-imidazol-4-yl)-1H-pyrazolo[3,4-d]pyrimidin-6-amine] | 100 to 1000 | ≥ 10000
OCCn1ccc(Nc2ncc3cnn(Cc4ccccc4F)c3n2)n1 [Example 238, 2-(3-((1-(2-Fluorobenzyl)-1H-pyrazolo[3,4-d]pyrimidin-6-yl)amino)-1H-pyrazol-1-yl)ethanol] | 100 to 1000 | ≥ 10000
CNC(=O)c1cc(Nc2ncc3cnn(Cc4ccccc4F)c3n2)c[nH]1 [Example 239, 4-((1-(2-Fluorobenzyl)-1H-pyrazolo[3,4-d]pyrimidin-6-yl)amino)-N-methyl-1H-pyrrole-2-carboxamide] | < 100 | < 100
OCCn1cnc(Nc2ncc3cnn(Cc4ccccc4F)c3n2)c1 [Example 240, 2-(4-((1-(2-Fluorobenzyl)-1H-pyrazolo[3,4-d]pyrimidin-6-yl)amino)-1H-imidazol-1-yl)ethanol] | < 100 | 1000 to 10000
Cn1ccc(Nc2ncc3cnn(Cc4ccccc4F)c3n2)c1 [Example 241, 1-(2-Fluorobenzyl)-N-(1-methyl-1H-pyrrol-3-yl)-1H-pyrazolo[3,4-d]pyrimidin-6-amine] | < 100 | 1000 to 10000
CNC(=O)c1cc(Nc2ncc3cnn(Cc4ccccc4F)c3n2)cn1C [Example 242, 4-((1-(2-Fluorobenzyl)-1H-pyrazolo[3,4-d]pyrimidin-6-yl)amino)-N,1-dimethyl-1H-pyrrole-2-carboxamide] | < 100 | 100 to 1000
Cn1cc(Nc2ncc3cnn(Cc4ccccc4F)c3n2)cc1C(=O)NCCN1CCOCC1 [Example 243, 4-((1-(2-Fluorobenzyl)-1H-pyrazolo[3,4-d]pyrimidin-6-yl)amino)-1-methyl-N-(2-morpholinoethyl)-1H-pyrrole-2-carboxamide] | < 100 | < 100
Cn1cc(Nc2ncc3cnn(Cc4ccccc4F)c3n2)cc1C(=O)N1CCOCC1 [Example 244, (4-((1-(2-Fluorobenzyl)-1H-pyrazolo[3,4-d]pyrimidin-6-yl)amino)-1-methyl-1H-pyrrol-2-yl)(morpholino)methanone] | < 100 | < 100
Cn1cc(Nc2ncc3cnn(Cc4ccccc4F)c3n2)cc1C(=O)NCC#N [Example 245, N-(Cyanomethyl)-4-((1-(2-fluorobenzyl)-1H-pyrazolo[3,4-d]pyrimidin-6-yl)amino)-1-methyl-1H-pyrrole-2-carboxamide] | < 100 | 100 to 1000
CN(C)C(=O)c1cc(Nc2ncc3cnn(Cc4ccccc4F)c3n2)cn1C [Example 246, 4-((1-(2-Fluorobenzyl)-1H-pyrazolo[3,4-d]pyrimidin-6-yl)amino)-N,N,1-trimethyl-1H-pyrrole-2-carboxamide] | < 100 | 100 to 1000
OCCn1ccc(Nc2ncc3cnn(Cc4ccccc4F)c3n2)c1 [Example 247, 2-(3-((1-(2-Fluorobenzyl)-1H-pyrazolo[3,4-d]pyrimidin-6-yl)amino)-1H-pyrrol-1-yl)ethanol] | < 100 | 100 to 1000
Cn1cc(Nc2ncc3cnn(Cc4cccc(N5CCOCC5)c4)c3n2)cc1C(=O)N1CCOCC1 [Example 248] | < 100 | 1000 to 10000
OCCn1cc(Nc2ncc3cnn(Cc4c(F)ccc(F)c4F)c3n2)cn1 [Example 254, 2-(4-((1-(2,3,6-Trifluorobenzyl)-1H-pyrazolo[3,4-d]pyrimidin-6-yl)amino)-1H-pyrazol-1-yl)ethanol] | < 100 | 100 to 1000
OCCn1cc(Nc2ncc3cnn(Cc4ccccc4C4CC4)c3n2)cn1 [Example 260, 2-(4-((1-(2-Cyclopropylbenzyl)-1H-pyrazolo[3,4-d]pyrimidin-6-yl)amino)-1H-pyrazol-1-yl)ethanol] | < 100 | 1000 to 10000
OCCn1cc(Nc2ncc3cnn(Cc4c(F)cccc4C(F)(F)F)c3n2)cn1 [Example 261, 2-(4-((1-(2-Fluoro-6-(trifluoromethyl)benzyl)-1H-pyrazolo[3,4-d]pyrimidin-6-yl)amino)-1H-pyrazol-1-yl)ethanol] | < 100 | 1000 to 10000
OCCn1cc(Nc2ncc3cnn(Cc4c(F)c(F)cc(N5CCNCC5)c4F)c3n2)cn1 [Example 283, 2-(4-((1-(2,3,6-Trifluoro-5-(piperazin-1-yl)benzyl)-1H-pyrazolo[3,4-d]pyrimidin-6-yl)amino)-1H-pyrazol-1-yl)ethanol] | < 100 | 1000 to 10000
CNC(=O)Cn1cc(Nc2ncc3cnn(Cc4ccccc4F)c3n2)cn1 [Example 290, 2-(4-((1-(2-Fluorobenzyl)-1H-pyrazolo[3,4-d]pyrimidin-6-yl)amino)-1H-pyrazol-1-yl)-N-methylacetamide] | < 100 | 100 to 1000
CNC(=O)Cn1cc(Nc2ncc3cnn(Cc4cccc(F)n4)c3n2)cn1 [Example 291, 2-(4-((1-((6-Fluoropyridin-2-yl)methyl)-1H-pyrazolo[3,4-d]pyrimidin-6-yl)amino)-1H-pyrazol-1-yl)-N-methylacetamide] | < 100 | 1000 to 10000
O=C1COCCN1c1ccc(F)c(Cn2ncc3cnc(Nc4cnn(CCO)c4)nc32)c1F [Example 293, 4-(2,4-Difluoro-3-((6-((1-(2-hydroxyethyl)-1H-pyrazol-4-yl)amino)-1H-pyrazolo[3,4-d]pyrimidin-1-yl)methyl)phenyl)morpholin-3-one] | < 100 | 1000 to 10000

From patent publication US9242987B2, “Heterocyclyl pyrazolopyrimidine analogues as JAK inhibitors” (Cellzome Limited, priority 2009, dated 2016)
